Test results from article PMC8364340 (Drug Design, Development and Therapy, 2021).

System: STZ-induced diabetic rats
Test: Blood glucose-lowering efficacy in STZ-induced diabetic rats
Assay type: in vivo
Settings: subcutaneous, 100 nmol/kg, mean ± SD, n=6

With “Humulin R: Recombinant Human Insulin Injection (Humulin R, 3mL:300IU), Lilly France” the “AUC for Glucose AUC0-24h” value (glucometer, trapezoidal rule) was 10,990 ± 415.5 mg·h/dL, the “AUC for Glucose AUC0-1h” value was 421 ± 20.4 mg·h/dL and the “AUC for Glucose AUC0-2h” value was 724 ± 52.2 mg·h/dL. The “AUC for Glucose AUC0-4h” value was 1328 ± 100.1 mg·h/dL, the “AUC for Glucose AUC0-6h” value was 2156 ± 132.0 mg·h/dL and the “AUC for Glucose AUC0-8h” value was 3092 ± 174.8 mg·h/dL. The “AUC for Glucose AUC0-12h” value was 5070 ± 259.4 mg·h/dL and the “AUC for Glucose AUC0-16h” value was 7146 ± 321.1 mg·h/dL.
